Series [1] concerns the target T1, monoamine oxidase A (MAO-A) (Homo sapiens, UniProt P21397).
T1 construct: purchased Sigma-Aldrich
T1 sequence (P21397 1-527): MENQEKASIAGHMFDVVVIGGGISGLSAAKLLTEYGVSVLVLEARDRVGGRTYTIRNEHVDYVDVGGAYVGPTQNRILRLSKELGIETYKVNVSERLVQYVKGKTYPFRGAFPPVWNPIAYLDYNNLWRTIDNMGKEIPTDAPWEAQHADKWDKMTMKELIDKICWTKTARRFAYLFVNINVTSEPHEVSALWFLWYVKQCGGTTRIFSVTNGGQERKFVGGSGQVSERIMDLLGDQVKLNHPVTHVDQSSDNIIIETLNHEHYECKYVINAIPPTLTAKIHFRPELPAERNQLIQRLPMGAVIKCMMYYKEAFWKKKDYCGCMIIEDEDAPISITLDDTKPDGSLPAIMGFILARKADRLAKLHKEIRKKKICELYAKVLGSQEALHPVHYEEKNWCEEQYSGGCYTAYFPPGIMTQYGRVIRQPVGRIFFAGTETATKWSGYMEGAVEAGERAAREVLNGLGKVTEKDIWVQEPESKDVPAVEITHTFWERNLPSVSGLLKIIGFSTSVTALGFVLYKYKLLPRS
Put plainly: Monoamine oxidase inhibition test (MAO-Glo assay kit). It is filed as biochemical. As to conditions: room temperature, 1 hour.
Description: To the reaction liquid was added 50 μL of a luciferin detection reagent, and the mixture was subjected to a reaction at room temperature for 20 minutes.

Another series has as its system HeLa cells. Kind of series: Cancer cell growth inhibition evaluation (MTT assay). In kind it is cell-based. Conditions: Homo sapiens, 48 h, read-out: GI50 (μM) HeLa. A digest of the protocol:
(§1)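 HeLa and SH-SY5Y cells exposed to compound for 48 hours, then MTT added for 3 hours. Formazan dissolved in HCl–isopropanol and absorbance read at 560 nm to determine viable cells.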

In a further series the test system is SH-SY5Y cells. Described as above. It is filed as cell-based. Conditions: Homo sapiens, read-out: GI50 (μM) SH-SY5Y. The procedure, abridged: as §1
Series [2] deals with bone marrow cells of normal mice. Kind of series: Normal cell growth inhibition evaluation (colony forming ability in methylcellulose semi-solid medium). In kind it is cell-based. Conditions: 10 days culture, FIG. 1. The source says: In general, a semi-solid medium obtained by adding a cytokine involved in differentiation induction to a methylcellulose medium is used to evaluate a colony forming ability. Some of the bone marrow cells contain hematopoietic stem cells and precursor cells, which are sources of hematopoietic cells, and these cells can create a mass (called a colony) formed of several tens, several hundreds, and in some cases, several thousands of cells from a single cell on a semi-solid medium. The colony forming ability of the bone marrow cells may be evaluated by counting the number of the colonies. The colony forming ability in the semi-solid medium well reflects an actual supply ability and construction ability from the hematopoietic stem cells and precursor cells to the hematopoietic cells in vivo.
To 3 ml of MethoCult M3434 (methylcellulose-based semi-solid medium; StemCell Technologies; containing interleukin 3(IL-3), interleukin 6 (IL-6), erythropoietin (EPO), and stem cell factor (SCF)) were added 600,000 bone marrow cells of normal mice (suspended in 300 μl of IMDM medium), and the mixture was stirred well and plated at 1.1 ml per 3.5-cm culture dish. The cells were cultured under the conditions of 5% CO2 and 37° C. for 10 days in an incubator. A mass in which the number of cells was 50 or more was defined as a colony, and the number of colonies formed on each dish was counted.

The test system of series [3] is human leukemia cell lines. Put plainly: Leukemia cell growth inhibition evaluation, summary in words. In kind it is cell-based. As to conditions: Table 5. The source says:
(§2) HL60, THP-1, K562, U937, KGla, HEL, and MDS-L were used as human leukemia cells. The cell lines are cell lines established from various subtypes such as acute myeloid leukemia, acute promyelocytic leukemia, acute monocytic leukemia, acute erythroid leukemia, and myelodysplastic syndromes, which progress to leukemia. Cells obtained by introducing leukemia fusion genes MLL/AF9, MLL/SEPT6, and MLL/ENL into the bone marrow of normal mice with a retrovirus so as to develop leukemia were used as murine leukemia cell lines.
(§3) This assay method involves, as a principle thereof, measuring an absorbance (a peak at from 450 nm to 490 nm) at the time of color development through a reaction of NADH, which is contained in the mitochondria of viable cells, and WST-8 to measure the amount of NADH. Specifically, the assay was performed by the following procedure.
(§4) The cells were plated at 50 μl, i.e., 5,000 cells per well in a 96-well microtiter plate. Next, a test compound dissolved in DMSO was mixed at various concentrations into the same medium, and 50 μl of each of the mixtures was added to each well. A medium was prepared so that the final concentration of the test compound was from 0 μM to 50 μM and so that the addition amount of DMSO was the same, and the cells were cultured in a CO2 incubator. On day 0 before the addition and on day 1, day 2, and day 3 after the addition, WST-8 reagent was added at 20 μl per well, and the cells were cultured for 1 hour in a CO2 incubator. After that, measurement was performed with ARVO X3 (manufactured by PerkinElmer).
(§5) Specifically, an absorbance at 450 nm was measured, an absorbance at 595 nm was measured in the same well, and the absorbance at 595 nm was subtracted from the absorbance at 450 nm to perform background correction for the well itself. Further, a well containing only a medium free of cells was subjected to the same measurement. A value in this case was also subtracted. Thus, the amount of viable cells was represented as a numerical value with correction of the influence of a medicament or a medium as well. Under a condition not containing the test compound (addition of only dimethyl sulfoxide), an exponential increase in number of viable cells on day 1, day 2, and day 3 in the stated order was confirmed.

For series [4], the system named is murine leukemia cell lines. The series is described as above. As to conditions: Table 6. In kind it is cell-based.
Description: as §2, §3, §4, §5

The mark [5] stands for this setting: at a concentration of up to 5 μM.

Counter-ions that a name gives are not always drawn. A value given as a limit tells only on which side of the number the result lay.

Usually IC50 stands for the concentration needed to halve the response being measured. By GI50 is commonly meant the concentration that inhibits growth by half. With `O=C(N[C@@H](CCCCNC1CC1c1ccccc1)C(=O)NCc1ccccc1)c1ccc(-c2ccccc2)cc1` (stereo partly drawn) [Example 8, 2-[N-(4-Phenylbenzenecarbonyl)]amino-6-(trans-2-phenylcyclopropan-1-amino)-N-benzylhexanamide Hydrochloride], the IC50 in series [1] came to 86 µM. Also, the 50% growth inhibitory concentration (GI50) was 11 µM in the series with HeLa cells and 4 µM with SH-SY5Y cells. Besides, the colony forming ability result in series [2] (at 10 μM) is reported as “remarkably inhibited”; in series [2] (setting [5]), “not inhibited”. Moreover, the “growth inhibitory / suppressing effect on the human leukemia cell lines (in words)” value in series [3] is given as “higher growth suppressing effects on the human leukemia cell lines than Comparative Example 2”. Besides, the “growth inhibitory / suppressing effect on the murine leukemia cell lines (in words)” value in series [4] is “very high growth suppressing effects”.
Turning to `O=C(N[C@@H](CCCCNC1CC1c1ccccc1)C(=O)NCc1cccc(C(F)(F)F)c1)c1ccc(-c2ccccc2)cc1` (stereo partly drawn) [Example 19, 2-[N-(4-Phenylbenzenecarbonyl)]amino-6-(trans-2-phenylcyclopropan-1-amino)-N-(3-trifluoromethylbenzyl)hexanamide Hydrochloride], the IC50 in series [1] is over 100 µM. The GI50 in the series on HeLa cells came to 4.3 µM; in the series with SH-SY5Y cells, 2.9 µM. The colony forming ability entry is listed as “remarkably inhibited” in series [2] (at 10 μM) and “not inhibited” in series [2] (setting [5]). Further, the “growth inhibitory / suppressing effect on the human leukemia cell lines (in words)” value in series [3] is “higher growth suppressing effects on the human leukemia cell lines than Comparative Example 2”. The “growth inhibitory / suppressing effect on the murine leukemia cell lines (in words)” value in series [4] is reported as “very high growth suppressing effects”.

(Values after patent US9388123B2, “LSD1-selective inhibitor having lysine structure” (KYOTO UNIVERSITY, priority 2012, dated 2016).)
